Read-outs that look alike come from different tables or passages of the source.
What was measured:
[1] = target: M^pro (Severe acute respiratory syndrome coronavirus 2 (2019-nCoV) (SARS-CoV-2), UniProt P0DTD1); assay type: binding; details: steady-state analysis, 25° C.
[2] = target: SARS-CoV-2 M^pro protease (Severe acute respiratory syndrome coronavirus 2 (2019-nCoV) (SARS-CoV-2), UniProt P0DTD1); assay: biochemical; assay type: biochemical; details: for IC50: Tables 5B-5E, M^pro 75 nM, substrate 10 μM

SMILES | IC50 [2] | further results
O=C1NC2(CC(c3ccccc3Cl)C2)C(=O)N1c1cncc2c(F)c(F)c(F)cc12 (single isomer, unassigned) [Compound 59, 2-(2-chlorophenyl)-7-(6,7,8-trifluoroisoquinolin-4-yl)-5,7-diazaspiro[3.4]octane-6,8-dione] | 6600 nM | Kd [1]: 250 nM
O=C1NC2(CC(n3cccn3)C2)C(=O)N1c1cncc2ccccc12 (stereo not shown) [Compound 46, 7-(isoquinolin-4-yl)-2-(1H-pyrazol-1-yl)-5,7-diazaspiro[3.4]octane-6,8-dione] | – | Kd [1]: 930 nM
O=C1NC2(CC(c3ccccc3Cl)C2)C(=O)N1c1cncc2ccc(F)cc12 (stereo not shown) [Compound 54, 2-(2-chlorophenyl)-7-(6-fluoroisoquinolin-4-yl)-5,7-diazaspiro[3.4]octane-6,8-dione] | 66 nM | –
O=C1NC2(CC(c3ccccc3Cl)C2)C(=O)N1c1cncc2cc(F)ccc12 (stereo not shown) [Compound 55, 2-(2-chlorophenyl)-7-(7-fluoroisoquinolin-4-yl)-5,7-diazaspiro[3.4]octane-6,8-dione] | 187 nM | –
COc1ccc2cncc(N3C(=O)NC4(CC(C5CCC5)C4)C3=O)c2c1 (stereo not shown) [Compound 57, 2-cyclobutyl-7-(6-methoxyisoquinolin-4-yl)-5,7-diazaspiro[3.4]octane-6,8-dione] | 340 nM | –
Cc1ccc2cncc(N3C(=O)NC4(CC(C5CCC5)C4)C3=O)c2c1 (stereo not shown) [Compound 58, 2-cyclobutyl-7-(6-methylisoquinolin-4-yl)-5,7-diazaspiro[3.4]octane-6,8-dione] | 361 nM | –
CC(C)c1ccncc1N1C(=O)NC2(CC(c3ccccc3Cl)C2)C1=O (stereo not shown) [Compound 63, 2-(2-chlorophenyl)-7-(4-isopropylpyridin-3-yl)-5,7-diazaspiro[3.4]octane-6,8-dione] | – | Kd [1]: 89 nM
CN(C)c1cncc(N2C(=O)NC3(CC(c4ccccc4Cl)C3)C2=O)c1 (stereo not shown) [Compound 65, 2-(2-chlorophenyl)-7-(5-(dimethylamino)pyridin-3-yl)-5,7-diazaspiro[3.4]octane-6,8-dione] | – | Kd [1]: 790 nM
O=C1NC2(CC(c3ccccc3Cl)C2)C(=O)N1c1cncnc1 (stereo not shown) [Compound 66, 2-(2-chlorophenyl)-7-(pyrimidin-5-yl)-5,7-diazaspiro[3.4]octane-6,8-dione] | – | Kd [1]: 691 nM
CN1C(=O)N(c2cncc3ccccc23)C(=O)C12CC(c1ccccc1Br)C2 (stereo not shown) [Compound 67, 2-(2-bromophenyl)-7-(isoquinolin-4-yl)-5-methyl-5,7-diazaspiro[3.4]octane-6,8-dione] | 140 nM | –
CN1C(=O)N(c2cncc3ccccc23)C(=O)C12CC(c1ccccc1Cl)C2 (stereo not shown) [Compound 68, 2-(2-chlorophenyl)-7-(isoquinolin-4-yl)-5-methyl-5,7-diazaspiro[3.4]octane-6,8-dione] | 453 nM | –
CN1C(=O)N(c2cncc3ccccc23)C(=O)C12CC(C1CCC1)C2 (stereo not shown) [Compound 69, 2-cyclobutyl-7-(isoquinolin-4-yl)-5-methyl-5,7-diazaspiro[3.4]octane-6,8-dione] | 562 nM | –
NC(=O)CN1C(=O)N(c2cncc3ccccc23)C(=O)C12CC(C1CCC1)C2 (stereo not shown) [Compound 70, 2-(2-cyclobutyl-7-(isoquinolin-4-yl)-6,8-dioxo-5,7-diazaspiro[3.4]octan-5-yl)acetamide] | 944 nM | –
O=C1N(c2cncc3ccccc23)C(=O)C2(CC(C3CCC3)C2)N1Cc1cc(Cl)nc(Cl)c1 (stereo not shown) [Compound 71, 2-cyclobutyl-5-((2,6-dichloropyridin-4-yl)methyl)-7-(isoquinolin-4-yl)-5,7-diazaspiro[3.4]octane-6,8-dione] | 1070 nM | –
N#CCN1C(=O)N(c2cncc3ccccc23)C(=O)C12CC(C1CCC1)C2 (stereo not shown) [Compound 72, 2-(2-cyclobutyl-7-(isoquinolin-4-yl)-6,8-dioxo-5,7-diazaspiro[3.4]octan-5-yl)acetonitrile] | 1360 nM | –
O=C(CN1C(=O)N(c2cncc3ccccc23)C(=O)C12CC(C1CCC1)C2)c1ccccn1 (stereo not shown) [Compound 73, 2-cyclobutyl-7-(isoquinolin-4-yl)-5-(2-oxo-2-(pyridin-2-yl)ethyl)-5,7-diazaspiro[3.4]octane-6,8-dione] | 1440 nM | –
C=CCN1C(=O)N(c2cncc3ccccc23)C(=O)C12CC(C1CCC1)C2 (stereo not shown) [Compound 74, 5-allyl-2-cyclobutyl-7-(isoquinolin-4-yl)-5,7-diazaspiro[3.4]octane-6,8-dione] | 1510 nM | –
CCN1C(=O)N(c2cncc3ccccc23)C(=O)C12CC(C1CCC1)C2 (stereo not shown) [Compound 75, 2-cyclobutyl-5-ethyl-7-(isoquinolin-4-yl)-5,7-diazaspiro[3.4]octane-6,8-dione] | 2000 nM | –
O=C1N(c2cncc3ccccc23)C(=O)C2(CC(C3CCC3)C2)N1Cc1ccccn1 (stereo not shown) [Compound 76, 2-cyclobutyl-7-(isoquinolin-4-yl)-5-(pyridin-2-ylmethyl)-5,7-diazaspiro[3.4]octane-6,8-dione] | 2470 nM | –
O=C1N(c2cncc3ccccc23)C(=O)C2(CC(C3CCC3)C2)N1Cc1ncc[nH]1 (stereo not shown) [Compound 77, 5-((1H-imidazol-2-yl)methyl)-2-cyclobutyl-7-(isoquinolin-4-yl)-5,7-diazaspiro[3.4]octane-6,8-dione] | 2520 nM | –

SMILES | IC50 [2] | further results
O=C1CCCN1CN1C(=O)N(c2cncc3ccccc23)C(=O)C12CC(C1CCC1)C2 (stereo not shown) [Compound 78, 2-cyclobutyl-7-(isoquinolin-4-yl)-5-((2-oxopyrrolidin-1-yl)methyl)-5,7-diazaspiro[3.4]octane-6,8-dione] | 3060 nM | –
CC(=O)N1C(=O)N(c2cncc3ccccc23)C(=O)C12CC(C1CCC1)C2 (stereo not shown) [Compound 79, 5-acetyl-2-cyclobutyl-7-(isoquinolin-4-yl)-5,7-diazaspiro[3.4]octane-6,8-dione] | 3080 nM | –
O=C1N(c2cncc3ccccc23)C(=O)C2(CC(C3CCC3)C2)N1Cc1ccn[nH]1 (stereo not shown) [Compound 80, 5-((1H-pyrazol-5-yl)methyl)-2-cyclobutyl-7-(isoquinolin-4-yl)-5,7-diazaspiro[3.4]octane-6,8-dione] | 3820 nM | –
O=C1NC2(CC(c3ccccc3Cl)C2)C(=O)N1c1cccnn1 (stereo not shown) [Compound 81, 2-(2-chlorophenyl)-7-(pyridazin-3-yl)-5,7-diazaspiro[3.4]octane-6,8-dione] | 419 nM | –
O=C1NC2(CC(c3ccccc3Cl)C2)C(=O)N1c1cnccc1Oc1ccccc1 (stereo not shown) [Compound 82, 2-(2-chlorophenyl)-7-(4-phenoxypyridin-3-yl)-5,7-diazaspiro[3.4]octane-6,8-dione] | – | activity at […] ([2]; percent of control activity at 2500 nM, read-out: % activity at 2500 nM): 55%
O=C1NC2(CC(c3ccccc3Cl)C2)C(=O)N1c1cc(Br)cnc1F (stereo not shown) [Compound 85, 7-(5-bromo-2-fluoropyridin-3-yl)-2-(2-chlorophenyl)-5,7-diazaspiro[3.4]octane-6,8-dione] | 323 nM | –
O=C1NC2(CC(c3ccccc3Cl)C2)C(=O)N1c1c(Cl)ncc2ccccc12 (stereo not shown) [Compound 86, 7-(3-chloroisoquinolin-4-yl)-2-(2-chlorophenyl)-5,7-diazaspiro[3.4]octane-6,8-dione] | – | activity at […] ([2]; percent of control activity at 750 nM, read-out: % activity at 750 nM): 57%
O=C1NC2(CC(c3cc(F)c(F)cc3Cl)C2)C(=O)N1c1cncc2ccccc12 (stereo not shown) [Compound 87, 2-(2-chloro-4,5-difluorophenyl)-7-(isoquinolin-4-yl)-5,7-diazaspiro[3.4]octane-6,8-dione] | 115 nM | –
Cc1ccnc(F)c1N1C(=O)NC2(CC(c3ccccc3Cl)C2)C1=O (stereo not shown) [Compound 90, 2-(2-chlorophenyl)-7-(2-fluoro-4-methylpyridin-3-yl)-5,7-diazaspiro[3.4]octane-6,8-dione] | 223 nM | –
COc1ccnc(F)c1N1C(=O)NC2(CC(c3ccccc3Cl)C2)C1=O (stereo not shown) [Compound 91, 2-(2-chlorophenyl)-7-(2-fluoro-4-methoxypyridin-3-yl)-5,7-diazaspiro[3.4]octane-6,8-dione] | > 50000 nM | –
O=C1NC2(CC(c3ccccc3Cl)C2)C(=O)N1c1cnccc1C(F)(F)F (stereo not shown) [Compound 92, 2-(2-chlorophenyl)-7-(4-(trifluoromethyl)pyridin-3-yl)-5,7-diazaspiro[3.4]octane-6,8-dione] | 309 nM | –
CN(C)c1ccncc1N1C(=O)NC2(CC(c3ccccc3Cl)C2)C1=O (stereo not shown) [Compound 93, 2-(2-chlorophenyl)-7-(4-(dimethylamino)pyridin-3-yl)-5,7-diazaspiro[3.4]octane-6,8-dione] | 157 nM | –
O=C1NC2(CC(c3ccccc3Cl)C2)C(=O)N1c1cnnc2ccccc12 (stereo not shown) [Compound 94, 2-(2-chlorophenyl)-7-(cinnolin-4-yl)-5,7-diazaspiro[3.4]octane-6,8-dione] | 1800 nM | –
CC1(c2ccccc2Cl)CC2(C1)NC(=O)N(c1cncc3ccccc13)C2=O (stereo not shown) [Compound 95, 2-(2-chlorophenyl)-7-(isoquinolin-4-yl)-2-methyl-5,7-diazaspiro[3.4]octane-6,8-dione] | 69 nM | –
CC1(c2ccccc2Cl)CC2(C1)NC(=O)N(c1cncc3ccccc13)C2=O (stereo not shown) [Compound 96, 2-(2-chlorophenyl)-7-(isoquinolin-4-yl)-2-methyl-5,7-diazaspiro[3.4]octane-6,8-dione] | 408 nM | –
O=C1NC2(CC(c3ccccc3Cl)C2)C(=O)N1c1cncc2nc[nH]c12 (stereo not shown) [Compound 97, 2-(2-chlorophenyl)-7-(1H-imidazo[4,5-c]pyridin-7-yl)-5,7-diazaspiro[3.4]octane-6,8-dione] | 287 nM | –
O=C1NC2(CC(c3ccccc3Cl)C2)C(=O)N1c1cncc2[nH]c(=O)[nH]c12 (stereo not shown) [Compound 98, 2-(2-chlorophenyl)-7-(2-oxo-2,3-dihydro-1H-imidazo[4,5-c]pyridin-7-yl)-5,7-diazaspiro[3.4]octane-6,8-dione] | 1380 nM | –
O=C1NC2(CC(c3ccccc3Cl)C2)C(=O)N1c1cncc2nccn12 (stereo not shown) [Compound 99, 2-(2-chlorophenyl)-7-(imidazo[1,2-a]pyrazin-5-yl)-5,7-diazaspiro[3.4]octane-6,8-dione] | 780 nM | –
O=C1NC2(CC(c3ccccc3Cl)C2)C(=O)N1c1cccnc1 (stereo not shown) [Compound 100, 2-(2-chlorophenyl)-7-(pyridin-3-yl)-5,7-diazaspiro[3.4]octane-6,8-dione] | 295 nM | –
